# Source: US9012617B2, “Detection reagents for tyrosine kinase activity and methods of use thereof” (The Trustees of The University of Pennsylvania, priority 2011, dated 2015)
# How the values were obtained:
# EphB2 = target: T1, EphB2 (Homo sapiens, UniProt P29323); assay: EphB2 kinetics imaging in HEK 293T cells transfected with GPhosEphB and EphB2; assay type: cell-based; conditions: Disassociation rate of EphB2 receptor after Genistien treatment (10 μm)
# T1 construct: expressed in transfected cells; host or cells: HEK 293T
# T1 sequence (P29323 19-1055): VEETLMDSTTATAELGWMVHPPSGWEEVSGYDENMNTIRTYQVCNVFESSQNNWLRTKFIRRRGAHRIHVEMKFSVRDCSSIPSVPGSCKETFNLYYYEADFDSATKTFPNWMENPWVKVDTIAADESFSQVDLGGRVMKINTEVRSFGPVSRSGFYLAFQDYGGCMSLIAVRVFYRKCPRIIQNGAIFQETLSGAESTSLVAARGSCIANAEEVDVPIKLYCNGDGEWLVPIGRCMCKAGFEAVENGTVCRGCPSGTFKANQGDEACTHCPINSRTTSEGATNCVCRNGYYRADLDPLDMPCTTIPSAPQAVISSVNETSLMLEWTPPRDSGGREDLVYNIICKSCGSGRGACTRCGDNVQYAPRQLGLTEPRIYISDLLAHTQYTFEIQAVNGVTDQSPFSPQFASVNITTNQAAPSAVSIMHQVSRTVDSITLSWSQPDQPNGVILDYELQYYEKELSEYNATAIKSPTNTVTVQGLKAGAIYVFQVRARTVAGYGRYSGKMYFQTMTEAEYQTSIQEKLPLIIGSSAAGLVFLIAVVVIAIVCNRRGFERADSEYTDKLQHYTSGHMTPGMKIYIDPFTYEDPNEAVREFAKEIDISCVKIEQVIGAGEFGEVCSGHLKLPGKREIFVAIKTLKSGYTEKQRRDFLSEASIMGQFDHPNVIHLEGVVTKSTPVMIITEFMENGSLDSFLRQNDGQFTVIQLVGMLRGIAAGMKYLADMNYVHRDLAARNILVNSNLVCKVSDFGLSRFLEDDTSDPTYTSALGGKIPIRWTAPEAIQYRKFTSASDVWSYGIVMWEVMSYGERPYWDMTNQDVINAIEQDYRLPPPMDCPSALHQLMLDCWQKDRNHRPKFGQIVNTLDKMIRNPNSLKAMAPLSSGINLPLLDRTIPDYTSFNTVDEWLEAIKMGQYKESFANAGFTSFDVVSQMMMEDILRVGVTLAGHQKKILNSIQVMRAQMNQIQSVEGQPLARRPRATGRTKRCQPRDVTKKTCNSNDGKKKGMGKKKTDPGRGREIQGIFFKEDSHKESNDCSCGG
# Method: (§1) Cells were imaged in ACSF on a spinning disk confocal (PerkinElmer) encased in a humidified temperature controlled incubator attached to a CCD-EM camera (Hamamatsu). Images were taken as a […] z-projection ([…] step size) every 20 seconds. After a 2 minute baseline, cells were treated and imaged with either DyLight 649 (Jackson Immunoresearch) labeled EphrinB2-FC or DyLight 649 labeled EphrinA1-FC (both at 500 ng/ml) for 15 minutes. Before continuing the experiment, bath was exchanged with fresh ASCF. Genistien (10 μm; Calbiochem) was added to previously imaged cells after a 2 minute baseline and imaged for an additional 15 minutes. Images were collected via Volocity software and analyzed using NIH ImageJ as detailed below.
# (§2) Image analysis was conducted off-line using NIH ImageJ using both custom and standard macros. […] Ratio change was calculated as DF/F=(F−F0)/F0 (Yuste and Konnerth, 2005). Significance between conditions was determined by two-way ANOVA with Bonferroni post-hoc tests. Receptor “on” kinetics were calculated as one-phase association, and “off” kinetics were calculated as one-phase decay. All statistical measures were conducted using GraphPad Prism version 5.00 (GraphPad Software, San Diego, Calif.) on a per coverslip basis with several cells analyzed per coverslip from a minimum of three independent experiments. […]
# EphA4 = target: T2, EphA4 (Homo sapiens, UniProt P54764); assay: EphA4 kinetics imaging in HEK 293T cells transfected with GPhosEphA and EphA4; assay type: cell-based; conditions: Disassociation rate of EphA4 receptor after Genistien treatment (10 μm)
# T2 construct: expressed in transfected cells; host or cells: HEK 293T
# T2 sequence (P54764 20-986, species assumed): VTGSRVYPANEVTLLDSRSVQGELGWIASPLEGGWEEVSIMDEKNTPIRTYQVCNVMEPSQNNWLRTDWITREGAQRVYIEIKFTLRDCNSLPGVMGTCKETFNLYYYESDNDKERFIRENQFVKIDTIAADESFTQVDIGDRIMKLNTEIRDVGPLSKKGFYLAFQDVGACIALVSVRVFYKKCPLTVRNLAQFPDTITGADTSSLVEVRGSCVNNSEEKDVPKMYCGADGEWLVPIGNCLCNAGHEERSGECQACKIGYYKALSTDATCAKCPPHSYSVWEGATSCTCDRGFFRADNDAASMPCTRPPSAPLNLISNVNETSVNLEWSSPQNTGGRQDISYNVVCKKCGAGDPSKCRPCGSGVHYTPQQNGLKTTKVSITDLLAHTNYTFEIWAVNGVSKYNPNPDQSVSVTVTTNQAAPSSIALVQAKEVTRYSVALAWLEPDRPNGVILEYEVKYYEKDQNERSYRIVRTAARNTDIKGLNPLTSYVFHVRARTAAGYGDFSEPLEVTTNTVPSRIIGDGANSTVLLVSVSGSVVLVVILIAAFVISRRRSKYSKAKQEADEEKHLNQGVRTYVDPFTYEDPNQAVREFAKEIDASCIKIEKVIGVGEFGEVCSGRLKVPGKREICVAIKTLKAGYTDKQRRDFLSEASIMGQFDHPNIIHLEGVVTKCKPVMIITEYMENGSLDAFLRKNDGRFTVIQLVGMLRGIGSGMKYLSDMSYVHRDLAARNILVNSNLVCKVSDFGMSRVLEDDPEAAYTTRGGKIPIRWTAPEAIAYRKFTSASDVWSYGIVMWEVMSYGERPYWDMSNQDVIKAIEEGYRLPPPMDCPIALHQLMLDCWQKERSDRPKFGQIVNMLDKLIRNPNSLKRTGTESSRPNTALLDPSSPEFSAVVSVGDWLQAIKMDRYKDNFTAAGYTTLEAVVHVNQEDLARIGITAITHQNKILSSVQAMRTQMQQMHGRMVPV
# Method: as §1, §2
smiles,measurement,setting,value
O=c1c(-c2ccc(O)cc2)coc2cc(O)cc(O)c12 [Genistein],One phase decay Tau,EphB2,1.588
same,One phase decay Tau,EphA4,0.8484
